Source: the supplement of paper PMC10307832

Assays:
Assay in all cases: relative viability (nuclei count vs DMSO), 5 days (fraction); higher = more cells survive
[1] = compound: C1COCCN1C2=NC(=NC3=C2OC4=C3C=CC=N4)C5=CC(=CC=C5)NC(=O)C6=CN=C(C=C6)N + O=C(c1cc(Cc2n[nH]c(=O)c3ccccc23)ccc1F)N1CCN(C(=O)C2CC2)CC1 [Olaparib] (partner 8 µM)
Outline: (§1)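 Values are medians from duplicate plates. Each reflects relative viability, defined as the nuclei count of treated wells over that of vehicle wells. Lung cancer cell lines in 1536-well plates were pin-tool dosed one day after seeding with one drug alone or with a fixed anchor-drug dose plus five library-drug doses (not always all listed) in √10 steps, then fixed, stained and imaged at 4× after 5 days.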

SGI-1776 + Pictilisib = compound: CN1CCC(CNc2ccc3ncc(-c4cccc(OC(F)(F)F)c4)n3n2)CC1 [SGI-1776] + CS(=O)(=O)N1CCN(Cc2cc3nc(-c4cccc5[nH]ncc45)nc(N4CCOCC4)c3s2)CC1 [Pictilisib] (partner 1 µM)
Outline: as §1

SGI-1776 + Pemetrexed = compound: CN1CCC(CNc2ccc3ncc(-c4cccc(OC(F)(F)F)c4)n3n2)CC1 [SGI-1776] + Nc1nc2[nH]cc(CCc3ccc(C(=O)N[C@@H](CCC(=O)O)C(=O)O)cc3)c2c(=O)[nH]1 [Pemetrexed] (partner 0.2 µM)
Outline: as §1

Entinostat + Trametinib = compound: Nc1ccccc1NC(=O)c1ccc(CNC(=O)OCc2cccnc2)cc1 [Entinostat] + CC(=O)Nc1cccc(-n2c(=O)n(C3CC3)c(=O)c3c(Nc4ccc(I)cc4F)n(C)c(=O)c(C)c32)c1 [Trametinib] (partner 0.02 µM)
Outline: as §1

| Cell Line | relative viability ([1]; first compound 0.02 µM) | relative viability ([1]; first compound 0.06325 µM) | relative viability ([1]; first compound 0.2 µM) | relative viability ([1]; first compound 0.6325 µM) | relative viability ([1]; first compound 2 µM) | relative viability (SGI-1776 + Pictilisib; first compound 0.08 µM) | relative viability (SGI-1776 + Pictilisib; first compound 0.8 µM) | relative viability (SGI-1776 + Pictilisib; first compound 2.53 µM) | relative viability (SGI-1776 + Pictilisib; first compound 8 µM) | relative viability (SGI-1776 + Pemetrexed; first compound 0.08 µM) | relative viability (SGI-1776 + Pemetrexed; first compound 0.8 µM) | relative viability (SGI-1776 + Pemetrexed; first compound 2.53 µM) | relative viability (SGI-1776 + Pemetrexed; first compound 8 µM) | relative viability (Entinostat + Trametinib; first compound 0.02 µM) | relative viability (Entinostat + Trametinib; first compound 0.06325 µM) | relative viability (Entinostat + Trametinib; first compound 0.2 µM) | relative viability (Entinostat + Trametinib; first compound 0.6325 µM) | relative viability (Entinostat + Trametinib; first compound 2 µM) |
| --- | --- | --- | --- | --- | --- | --- | --- | --- | --- | --- | --- | --- | --- | --- | --- | --- | --- | --- |
| NCI-H1793 | 0.831 | 0.884 | 0.968 | 0.769 | 0.508 | 0.301 | 0.256 | 0.399 | 0.314 | 0.947 | 1.17 | 0.835 | 0.689 | 0.465 | 0.387 | 0.31 | 0.304 | 0.292 |
| LC-2-ad | 0.678 | 0.705 | 0.682 | 0.846 | 0.648 | 0.428 | 0.522 | 0.544 | 0.254 | 0.286 | 0.288 | 0.285 | 0.254 | 0.894 | 0.883 | 0.83 | 0.698 | 0.479 |
| NCI-H3122 | 0.665 | 0.614 | 0.625 | 0.935 | 0.483 | 0.594 | 0.717 | 0.632 | 0.515 | 0.202 | 0.201 | 0.198 | 0.193 | 0.265 | 0.259 | 0.27 | 0.208 | 0.212 |
| LCLC-97TM1 | 0.533 | 0.388 | 0.341 | 0.33 | 0.287 | 0.25 | 0.296 | 0.196 | 0.179 | 0.182 | 0.2 | 0.143 | 0.182 | 0.233 | 0.207 | 0.214 | 0.152 | 0.139 |
| NCI-H520 | 0.383 | 0.352 | 0.332 | 0.328 | 0.292 | 0.319 | 0.323 | 0.225 | 0.204 | 0.784 | 0.692 | 0.553 | 0.348 | 0.698 | 0.906 | 0.604 | 0.698 | 0.355 |
| NCI-H1792 | 0.826 | 0.598 | 0.303 | 0.235 | 0.219 | 0.282 | 0.264 | 0.284 | 0.231 | 0.965 | 0.754 | 0.745 | 0.649 | 0.479 | 0.431 | 0.366 | 0.442 | 0.155 |
| NCI-H358 | 0.7 | 0.662 | 0.552 | 0.579 | 0.372 | 0.37 | 0.375 | 0.334 | 0.253 | 0.177 | 0.218 | 0.168 | 0.161 | 0.175 | 0.164 | 0.135 | 0.117 | 0.127 |
| NCI-H1755 | 0.875 | 0.922 | 0.92 | 0.702 | 0.594 | 0.386 | 0.442 | 0.367 | 0.299 | 0.465 | 0.443 | 0.425 | 0.372 | 0.721 | 0.751 | 0.605 | 0.565 | 0.44 |
| EPLC-272H | 0.732 | 0.807 | 0.547 | 0.721 | 0.58 | 0.315 | 0.318 | 0.188 | 0.259 | 0.423 | 0.362 | 0.351 | 0.246 | 0.351 | 0.342 | 0.319 | 0.27 | 0.182 |
| NCI-H2228 | 0.822 | 0.69 | 0.481 | 0.564 | 0.33 | 0.446 | 0.38 | 0.286 | 0.177 | 0.369 | 0.392 | 0.332 | 0.33 | 0.466 | 0.587 | 0.524 | 0.224 | 0.183 |
